Reference: patent US20250091992A1, “NOVEL COMPOUNDS AND USES THEREOF” (KANNA HEALTH LIMITED, priority 2021, published 2025)

Columns and labels:
IL-10 = assay: LPS-induced cytokine release from human PBMCs: IL-10; format: cell-based; settings: high concentration (10.0 μM)
Experimental: (§1) Data were tested for normality.

TNF-α = assay: LPS-induced cytokine release from human PBMCs: TNF-α; format: cell-based
Experimental: as §1

IL-1β = assay: LPS-induced cytokine release from human PBMCs: IL-1β; format: cell-based; settings: high concentration (10.0 μM)
Experimental: as §1

in vivo = assay: in vivo; parameters: species or system male C57Bl/6J mice; settings: male, C57Bl/6J, mouse, ip, 30 mg/kg
Experimental: Groups of 18 male C57Bl/6J mice (weighing between 22.7 and 27.3 g) received a single administration of test compound (30 mg/kg; i.p.) in methylcellulose (0.5% w/v) at a nominal concentration of […].
Three mice from each dose group were subject to cardiac puncture under general anesthesia at 0.25, 0.50, 1.00, 1.50, 2.00 and 4.00 hours post-dose and plasma samples generated for application of standard LC-MS/MS bioanalytical methods.
Quantitation of compound concentration was derived from reference calibration data. Pharmacokinetic data were derived from serial plasma concentrations.

[1] = biological target: human serotonin transporter (Homo sapiens, UniProt P31645);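 also: Read-out: uptake of tritium-labelled serotonin, measured by scintillation counting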
Sequence of human serotonin transporter (P31645 whole entry): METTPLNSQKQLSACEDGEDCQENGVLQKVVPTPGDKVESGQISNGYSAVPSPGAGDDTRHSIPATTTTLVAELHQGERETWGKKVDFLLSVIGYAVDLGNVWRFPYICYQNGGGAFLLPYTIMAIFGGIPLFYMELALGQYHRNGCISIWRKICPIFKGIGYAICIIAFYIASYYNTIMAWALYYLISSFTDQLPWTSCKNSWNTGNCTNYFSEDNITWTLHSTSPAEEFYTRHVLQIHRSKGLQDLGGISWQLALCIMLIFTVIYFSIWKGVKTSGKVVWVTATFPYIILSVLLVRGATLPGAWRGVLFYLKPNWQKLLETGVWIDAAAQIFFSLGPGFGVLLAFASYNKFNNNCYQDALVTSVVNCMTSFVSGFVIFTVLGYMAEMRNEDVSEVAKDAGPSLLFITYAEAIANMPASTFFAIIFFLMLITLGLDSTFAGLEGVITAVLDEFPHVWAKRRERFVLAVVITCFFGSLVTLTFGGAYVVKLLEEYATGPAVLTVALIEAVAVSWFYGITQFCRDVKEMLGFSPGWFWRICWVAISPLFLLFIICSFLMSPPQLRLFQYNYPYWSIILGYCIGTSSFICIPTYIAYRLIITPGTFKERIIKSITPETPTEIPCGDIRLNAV
Experimental: Following incubation, [^3H] serotonin uptake was quantified by a standard scintillation counting method.

[2] = naturally occurring; cited from earlier work
[3] = Hepatocyte stability study; format: in vitro ADME; settings: human hepatocytes, 1 μM, 37° C.
Experimental: The compounds were added at a concentration of 1 μM to human hepatocytes (0.5×10^6 cells/ml in Williams E media supplemented with 2 mM L-glutamine and 25 mM HEPES) and incubated for 0, 5, 10, 20, 40 and 60 min at 37° C. Five replicates were performed for each compound.

5-HT transporter = 5-HT transporter (Homo sapiens, UniProt P31645); settings: Harvey et al., 2011; cited from earlier work
Sequence of 5-HT transporter (P31645 whole entry, species assumed): as the sequence (P31645 whole entry) above

PDE-4B = PDE-4B (Homo sapiens, UniProt Q07343); settings: Harvey et al., 2011; cited from earlier work
Sequence of PDE-4B (Q07343 whole entry, species assumed): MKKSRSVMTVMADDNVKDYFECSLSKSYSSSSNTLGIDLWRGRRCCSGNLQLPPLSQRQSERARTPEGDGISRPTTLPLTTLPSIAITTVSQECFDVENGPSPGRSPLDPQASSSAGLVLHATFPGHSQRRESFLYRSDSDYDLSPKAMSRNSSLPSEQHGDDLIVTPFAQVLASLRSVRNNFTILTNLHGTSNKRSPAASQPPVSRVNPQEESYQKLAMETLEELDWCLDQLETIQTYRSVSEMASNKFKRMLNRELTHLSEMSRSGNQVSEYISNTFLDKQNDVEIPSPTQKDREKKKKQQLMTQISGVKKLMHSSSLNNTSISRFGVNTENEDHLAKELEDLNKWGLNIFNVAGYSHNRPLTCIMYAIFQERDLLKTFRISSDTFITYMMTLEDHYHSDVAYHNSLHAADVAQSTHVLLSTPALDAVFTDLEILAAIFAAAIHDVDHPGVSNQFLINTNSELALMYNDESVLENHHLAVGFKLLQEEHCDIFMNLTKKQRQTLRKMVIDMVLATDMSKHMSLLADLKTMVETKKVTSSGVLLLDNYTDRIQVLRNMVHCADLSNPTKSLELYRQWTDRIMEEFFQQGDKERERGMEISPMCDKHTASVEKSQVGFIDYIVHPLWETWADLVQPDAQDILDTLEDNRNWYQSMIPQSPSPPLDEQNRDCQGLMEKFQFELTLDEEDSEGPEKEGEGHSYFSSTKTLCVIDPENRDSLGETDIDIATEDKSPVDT

COc1ccc([C@@]23CCC(=O)C[C@@H]2N(C)CC3)cc1OCC1CC1 [Compound 1]
Inhibition of IL-10 (significance) (IL-10): statistically significantly inhibited | Inhibition of TNF-α release compared to vehicle (significance) (TNF-α; medium (1.0 μM) and high (10.0 μM) concentration): inhibited TNF-α release at a statistically significant level | Inhibition of IL-β (significance) (IL-1β): statistically significantly inhibited

COc1ccc([C@@]23CCC(=O)C[C@@H]2N(C)CC3)cc1OC1CCCC1 [Compound 11]
AUC(0-inf) (in vivo): 1040 ng·h/mL | Cmax (in vivo): 796 ng/mL | Tmax (in vivo): 15 min | half-life (in vivo): 56.4 min | Inhibition of IL-10 (significance) (IL-10): statistically significantly inhibited | Inhibition of TNF-α release compared to vehicle (significance) (TNF-α; all concentrations): inhibit TNF-α release at a statistically significant level | Inhibition of IL-β (significance) (IL-1β): statistically significantly inhibited | IC50 [1]: 800 nM

COc1ccc([C@@]23CCC(=O)C[C@@H]2N(C)CC3)cc1OC [Mesembrine, mesembrine, reference compound]
solubility in water [2]: scarcely soluble in water | Qualified Clint [3]: 16.3 μl/min/10^6 cells | Qualified t1/2 [3]: 84.8

COc1ccc([C@@]23C=C[C@@H](O)C[C@@H]2N(C)CC3)cc1OC [mesembrenol]
activity in 5-HT transporter binding assay (5-HT transporter): potently active | activity against PDE-4B (PDE-4B): potently active
